Test results published in US20130323776A1, “CARRIER PEPTIDE FRAGMENT AND USE THEREOF” (Toagosei Co. Ltd., priority 2009, published 2013).
Ends that are not written are not given here. * marks the point of attachment. FITC = O=C1OC2(c3ccc(O)cc3Oc3cc(O)ccc32)c2ccc(NC(=S)*)cc21; Acp = not defined here

Assays:
[1] = test system: Human neonate foreskin fibroblasts (ATCC Catalogue No. CRL-2097); test: Evaluation of cell membrane permeability function, confocal laser scanning microscopy of fluorescently labeled peptide; type: cell-based; details: 1 μM peptide, 1 or 4 hours culture; for penetration of the cell membrane from outside the cell and transfer into the cytoplasm: methanol fixed
Description: Human neonate foreskin fibroblasts (ATCC Catalogue No. CRL-2097) were used as the eukaryotic cells, and the cell membrane permeability capability of the samples (constructs for transferring a foreign substance) obtained in Example 1 above was investigated.
More specifically, the abovementioned fibroblasts were cultured in a liquid mixture of 90% Eagle MEM culture medium (containing 0.1% nonessential amino acids, 2 mM L-glutamine, 1 mM sodium pyruvate, and 1.5 g/L sodium hydrogen carbonate) and 10% serum (FBS) as the culture medium.
The cultured cells were trypsinized for 1 min at 37° C. with a 0.25% trypsin solution. After the abovementioned treatment, the trypsin was deactivated with FBS-containing medium, and a cell suspension (test sample for foreign substance transfer) was prepared by adjusting the cell concentration to approximately 5×10^4 cells/mL with the culture medium.
Next, 0.5 mL of the abovementioned cell suspension was placed in a designated cell culturing container (culture slide with a surface coating of 0.1% gelatin), and the cells were incubated overnight at 37° C. in a 5% CO2 atmosphere. After incubation the medium was replaced with fresh culture medium, and the 1 mM sample solutions of each of the samples prepared in abovementioned Example 1 were added to a cell culture container so that the final sample concentration (peptide concentration) would be 1 μM. In this case 0.5 μL of sample solution was added to the container. Then the samples were incubated at 37° C. for either 1 or 4 hours in a 5% CO2 atmosphere.
The cells after 1 hour of culture and the cells after 4 hours of culture were each rinsed in PBS and fixed with methanol (on ice for 10 min).
Next the methanol-fixed samples (cells) were mounted using Prolong® Gold Antifade Reagent (Invitrogen) that contains the nuclear stain DAPI (4′,6-diamidino-2-phenylindole). Then the localization within the cells of the peptide bonded to the fluorescent dye (i.e., fluorescently labeled peptide) in each test sample (i.e., the abovementioned mounted test samples after methanol fixation) was investigated using a confocal scanning laser microscope. Part of the results are presented herein as micrographs.

[2] = test system: human iPS cells (cell line 201B2-082008KU); test: Evaluation of cell membrane permeability function in iPS cells, confocal laser scanning microscopy of fluorescently labeled peptide; type: cell-based; details: 1 μM peptide, 1 or 4 hours culture; for penetration of the cell membrane from outside the cell and transfer into the cytoplasm of iPS cells: human iPS cells on MEF feeder cells, methanol fixed; for foreign substance transfer efficiency toward stem cells such as iPS cells: human iPS cells
Source text: The target cells for transferring the foreign substance were changed from human neonate foreskin fibroblasts to human iPS cells (human induced pluripotent stem cells), and the cell membrane permeability capability of the two samples (constructs for transferring a foreign substance) obtained in Example 1 above was investigated. It should also be noted that the iPS cells (cell line 201B2-082008KU) and the mouse embryonic fibroblast feeder cells (cell line SNL 76/7, hereinafter “MEF”) used in this example were provided by the Yamanaka Research Laboratory of the Institute for Frontier Medical Sciences, Kyoto University (professor Shinya Yamanaka).
First the obtained MEF were inactivated by a mitomycin C treatment (3 hours) and then trypsinised in a 0.25% trypsin solution containing 1 mM EDTA. After the above treatment, the trypsin was deactivated with culture medium containing FBS, and the MEF were adjusted to a suitable cell density using D-MEM medium (Dulbecco's Modified Eagle Medium: Gibco) containing MEF culture medium (7% FBS: Gibco), 2 mM L-glutamine (Gibco), 50 units/mL penicillin, and 50 μg/mL streptomycin (Gibco), and the abovementioned MEF were seeded onto a culture container (in the form of a culture slide or plate) with a surface coating of 0.1% gelatin. In this case, the MEF were seeded so that the cell density would be approximately 1.25×10^5 cells/mL. Next, the abovementioned cell culture containers were incubated overnight at 37° C. in a 5% CO2 atmosphere.
Thereafter, the feeder cells were prepared by removing the MEF culture medium and rinsing with PBS.
Separately, CTK solution (0.25% trypsin solution containing 0.1 mg/mL collagenase IV (Gibco), 1 mM calcium chloride, and 20% KSR (KnockOut® Serum Replacement)) was added to the obtained iPS cell line, the MEF were peeled therefrom, and the cells were rinsed with PBS.
Next, 1 mL hESC culture medium (i.e., human ES cell medium, in this case, DMEM/F12 culture medium (Gibco) containing 20% KSR (Gibco), 2 mM L-glutamine (Gibco), 0.1% nonessential amino acids (Gibco), 0.1 mM 2-mercaptoethanol (Gibco), 50 units/mL penicillin, and 50 μg/mL streptomycin (Invitrogen, 4 ng/mL bFGF (basic fibroblast growth factor)) was added, the iPS cells were peeled off using a cell scraper, and the colony was broken apart by gentle pipetting.
A suspension of iPS cells obtained in this manner was seeded onto the feeder cells in the culture containers that had been prepared as described above. Then, the above-mentioned hESC medium was added, and the cell culture containers were incubated overnight at 37° C. in a 5% CO2 atmosphere.
After incubation overnight, the culture medium was removed from the culture containers, and the abovementioned hESC medium to which one of the 1 mM sample solutions prepared in abovementioned. Example 1 had been added to make a final sample concentration (pipetted concentration) of 1 μM was added to the culture containers. Then the samples were incubated at 37° C. for either 1 or 4 hours in a 5% CO2 atmosphere.
The cells after 1 hour of culture and cells after 4 hours of culture were each rinsed in PBS (phosphate buffered saline) and fixed with methanol (on ice for 10 min).
Next, the same treatment as in Example 2 was performed, and the localization within the iPS cells of the peptide that was bonded to the fluorescent dye (i.e., fluorescently labeled) was investigated using a confocal scanning laser microscope. Part of the results are presented herein as micrographs.

Substance | penetration of the cell membrane from outside the cell and transfer into the cytoplasm [1] | penetration of the cell membrane from outside the cell and transfer into the cytoplasm of iPS cells [2] | foreign substance transfer efficiency toward somatic cells such as fibroblasts [1] | foreign substance transfer efficiency toward stem cells such as iPS cells [2]
(FITC-Acp)-RRRKRNRDARRRRRKQ ({FITC-Acp}-RRRKRNRDARRRRRKQ; reading uncertain; also: printed as (FITC-Acp)-RRRKRNRDARRRRRKQ) [Sample No. 5] | transferred into the cytoplasm |  |  | 
(FITC-Acp)-MARRRRHRGPRRPRPP ({FITC-Acp}-MARRRRHRGPRRPRPP; reading uncertain; also: printed as (FITC-Acp)-MARRRRHRGPRRPRPP) [Sample No. 3] | transferred into the cytoplasm |  |  | 
(FITC-Acp)-IMRRRGL ({FITC-Acp}-IMRRRGL; not fully specified (C-terminus); printed as (FITC-Acp)-IMRRRGL; reading uncertain) [Sample No. 7] | almost no passage through the cell membrane | almost no passage through the cell membrane |  | 
(FITC-Acp)-KKLKKRNK ({FITC-Acp}-KKLKKRNK; not fully specified (C-terminus); printed as (FITC-Acp)-KKLKKRNK; reading uncertain) [Sample No. 8] | almost no passage through the cell membrane | almost no passage through the cell membrane |  | 
(FAM)-MAKSIRSKHRRQMRMMKRE ({FAM}-MAKSIRSKHRRQMRMMKRE; not fully specified (C-terminus); printed as (FAM)-MAKSIRSKHRRQMRMMKRE) [Sample No. 2] | transferred into the cytoplasm |  |  | 
(FITC-Acp)-RSRKYTSWYVALKRTLKERCLQVVRSLVK ({FITC-Acp}-RSRKYTSWYVALKRTLKERCLQVVRSLVK; not fully specified (C-terminus); printed as (FITC-Acp)-RSRKYTSWYVALKRTLKERCLQVVRSLVK; reading uncertain) [Sample No. 14] | transferred into the cytoplasm | transferred into the cytoplasm of iPS cells | extremely high | 
(FITC-Acp)-GRCRRLANFGPRKRRRRRR ({FITC-Acp}-GRCRRLANFGPRKRRRRRR; not fully specified (C-terminus); printed as (FITC-Acp)-GRCRRLANFGPRKRRRRRR; reading uncertain) [Sample No. 4] | transferred into the cytoplasm | transferred into the cytoplasm of iPS cells | extremely high | extremely high
(FAM)-MQRKPTIRRKNLRLRRK ({FAM}-MQRKPTIRRKNLRLRRK; not fully specified (C-terminus); printed as (FAM)-MQRKPTIRRKNLRLRRK) [Sample No. 6] | transferred into the cytoplasm | transferred into the cytoplasm of iPS cells | extremely high | extremely high
